According to PMC9240925, “Mechanistic study of the solubilization effect of basic amino acids on a poorly water-soluble drug” (RSC Advances, 2022):
≈ marks a conversion by molar mass, not a printed value. Where two headings read alike, the source gives them in different places.

What was measured:
[1] = Differential scanning calorimetry, glass transition; format: physicochemical; settings: for Tg, Gordon–Taylor (glass transition temperature): calculated by Gordon–Taylor equation with crystalline densities
Description: DSC was performed using a Q20 instrument V24.7 build 119 thermal analysis system with an intercooler system (Elstree, United Kingdom). The DSC system was calibrated and validated using indium (average melting temperature 156.36 ± 0.03 °C and enthalpy 29.81 ± 0.05 J g^−1). Powder samples of 1 to 5 mg were weighed in T-zero aluminum pans with T-zero lids (TA Instruments – A Division of Waters Ltd, Centennial Avenue, Elstree, Hertfordshire, United Kingdom). […] All results were analyzed using the TRIOS software for the phases transitions to determine the glass transition temperature (Tg) and melting point (Tm).
Indomethacin (as received) was analyzed in two heating cycles to produce an amorphous form. The first cycle was to measure the Tm of the crystalline form and the second cycle was for obtaining the Tg of amorphous indomethacin. The freeze-dried complexes and crystalline arginine, histidine and lysine were undergone one heating cycle to determine the Tg or Tm. The Tg described by Gordon–Taylor[39] was determined for drug–basic amino acids binary systems using the given equations below.
The Gordon–Taylor equation from composite glasses:3 [drawing 3]
T g(mix) is the glass transition temperature of a binary mixture, w1 and w2 are the weight fraction and Tg1 and Tg2 are the glass transitions temperature of individual compound in the mixture, K is typically considered an empirical constant:4 [drawing 4] where p1 and p2 are the powder densities of the single amorphous components. The crystalline densities of compounds (pIND = 1.379 g cm^−3pARG = 1.325 g cm^−3, pHIS = 1.412 g cm^−3 and pLYS = 1.237 g cm^−3) were used as approximation because small differences in density were reported between crystalline and amorphous form of small molecular compound.[9]

[2] = cited from earlier work
[3] = set-up: method as in ref 34 = [34]; Robert C. W. , Handbook of Chemistry and Physics , ed. R. C. Weast , CRC Press , Ohio , 55th edn, 1975; settings: at 25 °C; cited from earlier work
[4] = set-up: method as in as printed in each cell: ref 60, 62, 63, 10, 64; settings: cited from earlier work
[5] = pH-solubility study, shake flask method; format: physicochemical; settings: mean ± SD n = 3
Description: The samples were then filtered using a membrane filter (syringe filter, 0.45 μm sterile). The filtered solutions were diluted within the range of calibration curves and analyzed spectrophotometrically at 260 nm.

[6] = Phase solubility diagrams of indomethacin in basic amino acid solutions and complexation efficiency; format: physicochemical; settings: 30 °C
Description: After equilibration, the mixtures were centrifuged at 3750 rpm for 10 minutes (Beckman Coulter Allegra X-12 Series). […] The supernatant was filtered via a membrane filter (syringe filter, 0.45 μm sterile). The solutions were then diluted within the calibration curve range and analyzed spectrophotometrically at 260 nm. The precipitates (solid phase) were filtered again using filter paper (Whatman Grade 3). The solid phase was dried in an oven at 70 °C for 30 minutes, then examined using FTIR.
The complexation or solubilizing efficiency (CE)[36] was calculated from the slope of the linear drug–amino acid phase solubility (PS) diagram using the following eqn (1):1 [drawing 1] where K1:1 indicates to the stability constant, which is used to compare the affinity of drug to different amino acids. S0 refers to the intrinsic solubility, [drug–amino acid complex] is the concentration of dissolved drug–amino acid complex, [amino acid] is the concentration of dissolved free amino acid and slope is the slope of the phase solubility diagram.

[7] = Hydrotropic solubilization in amino acid solutions at controlled pH; format: physicochemical
Description: The pH of the solutions was adjusted by adding 0.1 M hydrochloric acid and monitored with a pH meter (OXOID limited, England). Excess indomethacin was then added to the amino acid solutions. The suspension was stirred with a magnetic stirrer for 24 hours at 30 ± 2 °C or 45 ± 2 °C until it is equilibrated followed by adjusting the pH again. The samples were then filtered via a membrane filter (syringe filter, 0.45 μm sterile).

[8] = Physical and chemical stability of indomethacin in solution (UV-Vis); format: physicochemical
Description: Spectra were collected using the UV Lambda software over the wavelength range of 400 nm–200 nm. The same solvent without the drug/amino acid was used as the reference. Samples were analyzed at identical conditions: slit width 1 nm, bandwidth 0.5 nm, pair cuvette cells 1 cm.
The results were recorded for samples stored over a week at ambient temperature (25 ± 1 °C). Chemical stability was confirmed by measuring the UV absorbance at 320 nm.

[9] = Drug content and chemical stability of freeze-dried mixtures by UV-Vis; format: physicochemical; settings: with all amino acids, peak position at 320 nm
Description: The resulting filtrates were frozen for 24 hours at −80 °C and then freeze-dried for 48 hours (LTE Scientific Lyotrap Freeze Dryer, Great Britain, Greenfield, Oldham) with the system temperature of −51 ± 2 °C, pressure of around 0.1 mbar and the vacuum pump operated at a flow rate of 21 m^3 h^−1. The freeze-dried samples were then transferred into a plastic vacuum desiccator containing phosphorous pentoxide desiccant (P2O5) at ambient temperature (22 ± 2 °C). Indomethacin–sodium salt was also produced for comparison purposes.
The freeze-dried samples were prepared by dissolving 10 mg freeze-dried materials in water in a 10 mL volumetric flask. The solutions were then diluted to concentrations that fall within the calibration curve and analyzed at 320 nm. The percentage drug content[37] was calculated by eqn (2)2 [drawing 2]

[10] = set-up: method as in ref 34 = [34]; Robert C. W. , Handbook of Chemistry and Physics , ed. R. C. Weast , CRC Press , Ohio , 55th edn, 1975; settings: cited from earlier work
[11] = set-up: method as in ref 42 = [42]; Archontaki H. A. Kinetic Study on the Degradation of lndomethacin in Alkaline Aqueous Solutions by Derivative Ultraviolet Spectrophotometry Analyst 1995 120 1 8; settings: pH = 13; cited from earlier work

SMILES: N=C(N)NCCC[C@H](N)C(=O)O [Arginine, L-arginine]
- Tg, Gordon–Taylor (glass transition temperature) [1]: 55.0 °C

SMILES: NCC(=O)O [Glycine, glycine]
- pI (isoelectric point) [2]: 5.97

SMILES: N[C@@H](Cc1c[nH]cn1)C(=O)O [Histidine, L-histidine]
- Tg, Gordon–Taylor (glass transition temperature) [1]: 37.0 °C
- Water solubility [3]: 4.20 g/100 mL
- pI (isoelectric point) [2]: 7.59
- Tg, lit. (glass transition temperature) [4]: 37.0 (ref. [63]) °C

SMILES: COc1ccc2c(c1)c(CC(=O)O)c(C)n2C(=O)c1ccc(Cl)cc1 [Indomethacin]
- solubility at 24 h ([5]; 25 °C, simulated gastric fluid, thermodynamic from solid, 25 ± 2 °C, water pH 1.2, unionized form, read-out: Intrinsic solubility (S0)): 0.95 µM (≈ 0.34 µg/mL)
- solubility at 24 h ([5]; 25 ± 2 °C, water pH 6.3, ionized and unionized forms, read-out: Aqueous solubility (S)): 64.2 µM (≈ 23 µg/mL)
- solubility at 24 h ([5]; 30 °C, aqueous buffer, thermodynamic from solid, 30 ± 2 °C, water pH 6.3, ionized and unionized forms, read-out: Aqueous solubility (S)): 81.6 µM (≈ 29.2 µg/mL)
- solubility at 24 h ([5]; 30 ± 2 °C, water pH 1.2, unionized form, read-out: Intrinsic solubility (S0)): 1.18 µM (≈ 0.422 µg/mL)
- Phase solubility diagram type (Higuchi and Connors) ([6]; indomethacin in arginine solution above 250 mM): AN-type
- Phase solubility diagram type (Higuchi and Connors) ([6]; indomethacin in arginine solution below 250 mM): AL-type
- Phase solubility diagram type (Higuchi and Connors) ([6]; indomethacin in lysine solutions): Bs-type
- Solubility improvement of ionized indomethacin compared to aqueous solubility at same pH without histidine ([7]; 0.35 M histidine solution, pH 7): ~8 fold
- Solubility improvement of unionized indomethacin compared to intrinsic solubility in water ([7]; 1.5 M isoleucine solution, pH 1.2, 30 °C): ~25 fold
- Solubility improvement of unionized indomethacin compared to intrinsic solubility in water ([7]; 1.6 M arginine solution, pH 1.2, 30 °C): ~11 fold
- Solubility change of unionized indomethacin compared to intrinsic solubility in water ([7]; glycine solution, same concentration, pH 1.2, 30 °C): did not change
- Stability in solution (UV absorbance) ([8]; arginine solution, pH 10.3): gradually degraded after 24 hours
- Stability in solution (UV absorbance) ([8]; basic amino acid solutions, pH 6.3 to 10.3, duration of experiment less than 24 hours): remains stable
- Stability in solution (UV absorbance) ([8]; histidine solution, pH 7.5): stable over a week
- Stability of indomethacin concentration in lysine aqueous solution on storage ([8]; lysine concentration between 27 and 37 mM (supersaturated, partial precipitation)): dropped after 1 day of storage
- Stability of indomethacin concentration in lysine aqueous solution on storage ([8]; lysine concentrations below 27 mM, examined for ten days): appears stable
- Stability in solution (UV absorbance) ([8]; lysine solution, pH 10): gradually degraded after 24 hours
- Chemical stability after freeze-drying [9]: chemically stable
- Tg, exp. (glass transition temperature) ([1]; DSC 5 °C/min, n = 3, IND melt quench, mixtures freeze-dried): 42.1 ± 0.5 °C
- Tg, Gordon–Taylor (glass transition temperature) [1]: 42.1 °C
- Water solubility [3]: 0.009 g/100 mL
- log p (partition coefficient) [10]: 4.05
- Stability in solution of high pH [11]: rapidly hydrolyzed
- Tg, lit. (glass transition temperature) [4]: 42.0 (ref. [60]) °C

SMILES: CC[C@H](C)[C@H](N)C(=O)O [Isoleucine, L-isoleucine]
- Water solubility [3]: 0.41 g/100 mL
- pI (isoelectric point) [2]: 6.04
- log p (partition coefficient) [10]: −1.70

SMILES: NCCCC[C@H](N)C(=O)O [Lysine, L-lysine]
- Tg, Gordon–Taylor (glass transition temperature) [1]: 68.0 °C
- Water solubility [3]: Very soluble
- pI (isoelectric point) [2]: 9.47
- Tg, lit. (glass transition temperature) [4]: 68.0 (ref. [63]) °C
